Measurements taken from BindingDB's records for PubMed 35671625 (Northwest University, 2022).

Molecular target: Beta-2 adrenergic receptor (Homo sapiens, UniProt P07550)
Assay: Displacement of [3H]-CGP12,177 from immobilized Halo tag-fused beta2 adrenoceptor (unknown origin) expressed in Escherichia coli BL21 (DE3)

Beta-2 adrenergic receptor, sequence (P07550 whole entry, the tested form may be a part): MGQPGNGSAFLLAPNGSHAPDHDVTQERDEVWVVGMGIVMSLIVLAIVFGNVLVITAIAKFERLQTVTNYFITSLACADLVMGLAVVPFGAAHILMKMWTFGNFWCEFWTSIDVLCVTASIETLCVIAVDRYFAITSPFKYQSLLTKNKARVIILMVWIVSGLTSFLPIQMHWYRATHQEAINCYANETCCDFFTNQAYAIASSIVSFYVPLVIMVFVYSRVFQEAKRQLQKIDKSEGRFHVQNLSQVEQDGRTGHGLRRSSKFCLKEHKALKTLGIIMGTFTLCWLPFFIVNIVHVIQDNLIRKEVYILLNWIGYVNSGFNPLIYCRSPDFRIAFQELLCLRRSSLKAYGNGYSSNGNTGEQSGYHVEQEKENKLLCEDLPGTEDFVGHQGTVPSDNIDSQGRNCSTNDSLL

Q: `CNC(C)Cc1ccccc1OC` (stereo unspecified) [Methoxyphenamine] was tested. Which Kd did it give?
A: Its Kd is 2.1 nM.
